Experimental findings from US11724992B2 (Novartis AG, priority 2017, dated 2023) are described below.

In general, IC50 refers to the concentration that inhibits the measured activity by half.

The test system of this assay is IL-1β production in PMA-differentiated THP-1 cells. Put plainly: IL-1β production in PMA-differentiated THP-1 cells stimulated with gramicidin (hTHP-1 assay, 2% fetal bovine serum; Procedures 1-3). The assay is classed as cell-based, human. The note with it: hTHP-1 assay containing 2% fetal bovine serum; class symbols; read-out: hTHP-1 IC50 (Average IC50 of compounds in hTHP-1 assay). As for the experimental part:
The following protocol is suitable for testing the activity of the compounds disclosed herein.
Procedure 1: IL-1β Production in PMA-Differentiated THP-1 Cells Stimulated with Gramicidin
THP-1 cells were purchased from the American Type Culture Collection and sub-cultured according to instructions from the supplier. Cells were cultured in complete RPMI 1640 (containing 10% heat inactivated FBS, penicillin (100 units/ml) and streptomycin (100 μg/ml)), and maintained in log phase prior to experimental setup. Prior to the experiment, compounds were dissolved in dimethyl sulfoxide (DMSO) to generate a 30 mM stock. The compound stock was first pre-diluted in DMSO to 3, 0.34, 0.042 and 0.0083 mM intermediate concentrations and subsequently spotted using Echo550 liquid handler into an empty 384-well assay plate to achieve desired final concentration (e.g. 100, 33, 11, 3.7, 1.2, 0.41, 0.14, 0.046, 0.015, 0.0051, 0.0017 μM). DMSO was backfilled in the plate to achieve a final DMSO assay concentration of 0.37%. The plate was then sealed and stored at room temperature until required.
THP-1 cells were treated with PMA (Phorbol 12-myristate 13-acetate) (20 ng/ml) for 16-18 hours. On the day of the experiment the media was removed and adherent cells were detached with trypsin for 5 minutes. Cells were then harvested, washed with complete RPMI 1640, spun down, and resuspended in RPMI 1640 (containing 2% heat inactivated FBS, penicillin (100 units/ml) and streptomycin (100 μg/ml). The cells were plated in the 384-well assay plate containing the spotted compounds at a density of 50,000 cells/well (final assay volume 50 μl). Cells were incubated with compounds for 1 hour and then stimulated with gramicidin (5 μM) (Enzo) for 2 hours. Plates were then centrifuged at 340 g for 5 min. Cell free supernatant (40 μL) was collected using a 96-channel PlateMaster (Gilson) and the production of IL-1β was evaluated by HTRF (cisbio). The plates were incubated for 18 h at 4° C. and read using the preset HTRF program (donor emission at 620 nm, acceptor emission at 668 nm) of the SpectraMax i3x spectrophotometer (Molecular Devices, software SoftMax 6). A vehicle only control and a dose titration of CRID3 (100-0.0017 μM) were run concurrently with each experiment.
Procedure 2: IL-1β Production in PMA-Differentiated THP-1 Cells Stimulated with Gramicidin
THP-1 cells were purchased from the American Type Culture Collection and sub-cultured according to instructions from the supplier. Prior to experiments, cells were cultured in complete RPMI 1640 (containing 10% heat inactivated FBS, penicillin (100 units/ml) and streptomycin (100 μg/ml)), and maintained in log phase prior to experimental setup. Prior to the experiment THP-1 were treated with PMA (Phorbol 12-myristate 13-acetate) (20 ng/ml) for 16-18 hours. Compounds were dissolved in dimethyl sulfoxide (DMSO) to generate a 30 mM stock. On the day of the experiment the media was removed and adherent cells were detached with trypsin for 5 minutes. Cells were then harvested, washed with complete RPMI 1640, spun down, resuspended in RPMI 1640 (containing 2% heat inactivated FBS, penicillin (100 units/ml) and streptomycin (100 μg/ml). The cells were plated in a 384-well plate at a density of 50,000 cells/well (final assay volume 50 μl). Compounds were first dissolved in assay medium to obtain a 5× top concentration of 500 μM. 10 step dilutions (1:3) were then undertaken in assay medium containing 1.67% DMSO. 5× compound solutions were added to the culture medium to achieve desired final concentration (e.g. 100, 33, 11, 3.7, 1.2, 0.41, 0.14, 0.046, 0.015, 0.0051, […]). Final DMSO concentration was at 0.37%. Cells were incubated with compounds for 1 hour and then stimulated with gramicidin (5 μM) (Enzo) for 2 hours. Plates were then centrifuged at 340 g for 5 min. Cell free supernatant (40 μL) was collected using a 96-channel PlateMaster (Gilson) and the production of IL-1β was evaluated by HTRF (cisbio). […]
For the compound `Cc1oc(S(N)(=O)=NC(=O)Nc2c3c(cc4c2CCC4C)CCC3)cc1C(C)(C)O` (single isomer, unassigned) [Example 125], the IC50 was in the range of 40 to 200 nM.
Turning to `Cc1oc(S(N)(=O)=NC(=O)Nc2c3c(cc4c2C(C)CC4)CCC3)cc1C(C)(C)O` (single isomer, unassigned) [Example 126], the IC50 lay in the range of 1000 to 5000 nM.
Regarding `CC(C)(O)c1cccc(S(N)(=O)=NC(=O)Nc2c3c(c(F)c4c2CCC4)CCC3)c1` (single isomer, unassigned) [Example 128], the IC50 lay within 200 to 1000 nM.
Under `CC(C)(O)c1cccc(S(N)(=O)=NC(=O)Nc2c3c(c(F)c4c2CCC4)CCC3)c1` (single isomer, unassigned) [Example 129] stands 5000 to 30000 nM; under `CC(C)c1cc(C#N)cc(C(C)C)c1NC(=O)N=S(N)(=O)c1ncc(C(C)(C)O)s1` (single isomer, unassigned) [Example 130], 40 to 200 nM; under `CC(C)c1cc(C#N)cc(C(C)C)c1NC(=O)N=S(N)(=O)c1ncc(C(C)(C)O)s1` (single isomer, unassigned) [Example 131], 1000 to 5000 nM.
On to `CC(C)c1cc(OC(F)F)cc(C(C)C)c1NC(=O)N=S(N)(=O)c1ncc(C(C)(C)O)s1` (single isomer, unassigned) [Example 136], for which the IC50 is 1000 to 5000 nM.
Take `CC(C)c1cc(OC(F)F)cc(C(C)C)c1NC(=O)N=S(N)(=O)c1ncc(C(C)(C)O)s1` (single isomer, unassigned) [Example 137]: the IC50 is 40 to 200 nM.
For `CC(C)c1cc(F)cc(C(C)C)c1NC(=O)N=S(N)(=O)c1ncc(C(C)(C)O)s1` (single isomer, unassigned) [Example 138], the IC50 lay in the range of 1000 to 5000 nM.
Turning to `CC(C)c1cc(F)cc(C(C)C)c1NC(=O)N=S(N)(=O)c1ncc(C(C)(C)O)s1` (single isomer, unassigned) [Example 139], the IC50 is 40 to 200 nM.
Turning to `CC(C)c1cc(F)cc(C(C)C)c1NC(=O)N=S(N)(=O)c1cc(C(C)(C)O)cs1` (single isomer, unassigned) [Example 140], the IC50 is 8 to 40 nM.
Take `CC(C)c1cc(F)cc(C(C)C)c1NC(=O)N=S(N)(=O)c1cc(C(C)(C)O)cs1` (single isomer, unassigned) [Example 141]: the IC50 lay in the range of 1000 to 5000 nM.
Under `CC(C)(O)c1ccc(S(N)(=O)=NC(=O)Nc2c3c(c(Cl)c4c2CCC4)CCC3)c(F)c1` (single isomer, unassigned) [Example 142] stands 40 to 200 nM.
Under `CC(C)(O)c1ccc(S(N)(=O)=NC(=O)Nc2c3c(c(Cl)c4c2CCC4)CCC3)c(F)c1` (single isomer, unassigned) [Example 143] stands 5000 to 30000 nM.
Take `CC(C)(O)c1ncc(S(N)(=O)=NC(=O)Nc2c3c(c(C#N)c4c2CCC4)CCC3)s1` (single isomer, unassigned) [Example 146]: the IC50 fell in the range of 1000 to 5000 nM.
Under `CC(C)(O)c1ncc(S(N)(=O)=NC(=O)Nc2c3c(c(C#N)c4c2CCC4)CCC3)s1` (single isomer, unassigned) [Example 147] stands 200 to 1000 nM; under `Cc1oc(S(N)(=O)=NC(=O)Nc2c3c(c(F)c4c2CCC4)CCC3)cc1C(C)(C)O` (single isomer, unassigned) [Example 148], < 8 nM; under `Cc1oc(S(N)(=O)=NC(=O)Nc2c3c(c(F)c4c2CCC4)CCC3)cc1C(C)(C)O` (single isomer, unassigned) [Example 149], 200 to 1000 nM.
Take `CC(C)(O)c1cccc(S(N)(=O)=NC(=O)Nc2c3c(cc4c2CCC4)CCC3)c1` (single isomer, unassigned) [Example 150]: the IC50 was in the range of 5000 to 30000 nM.
Regarding `CC(C)(O)c1cccc(S(N)(=O)=NC(=O)Nc2c3c(cc4c2CCC4)CCC3)c1` (single isomer, unassigned) [Example 151], the IC50 is 200 to 1000 nM.
Turning to `CC(C)(O)c1ccc(S(N)(=O)=NC(=O)Nc2c3c(c(F)c4c2CCC4)CCC3)c(F)c1` (single isomer, unassigned) [Example 152], the IC50 was 40 to 200 nM.
As for `CC(C)(O)c1ccc(S(N)(=O)=NC(=O)Nc2c3c(c(F)c4c2CCC4)CCC3)c(F)c1` (single isomer, unassigned) [Example 153], the IC50 was 1000 to 5000 nM.
Regarding `CN(C)Cc1ccc(S(N)(=O)=NC(=O)Nc2c3c(cc4c2CCC4)CCC3)c(F)c1` (single isomer, unassigned) [Example 154], the IC50 is 40 to 200 nM.
Under `CN(C)Cc1ccc(S(N)(=O)=NC(=O)Nc2c3c(cc4c2CCC4)CCC3)c(F)c1` (single isomer, unassigned) [Example 155] stands 1000 to 5000 nM; under `CC(C)c1cc(F)cc(C(C)C)c1NC(=O)N=S(N)(=O)c1ccc(C(C)(C)O)s1` (single isomer, unassigned) [Example 156], 200 to 1000 nM.
On to `CC(C)c1cc(F)cc(C(C)C)c1NC(=O)N=S(N)(=O)c1ccc(C(C)(C)O)s1` (single isomer, unassigned) [Example 157], for which the IC50 fell in the range of 5000 to 30000 nM.
Turning to `CC(C)(O)c1ccc(S(N)(=O)=NC(=O)Nc2c3c(c(F)c4c2CCC4)CCC3)c(Cl)c1` (single isomer, unassigned) [Example 158], the half-inhibitory concentration (IC50) fell in the range of 1000 to 5000 nM.
`CC(C)(O)c1ccc(S(N)(=O)=NC(=O)Nc2c3c(c(F)c4c2CCC4)CCC3)c(Cl)c1` (single isomer, unassigned) [Example 159]: the IC50 lay in the range of 5000 to 30000 nM.
As to `CN(C)Cc1cccc(S(N)(=O)=NC(=O)Nc2c3c(cc4c2CCC4)CCC3)c1` (single isomer, unassigned) [Example 160], the IC50 was 200 to 1000 nM.
With `CN(C)Cc1cccc(S(N)(=O)=NC(=O)Nc2c3c(cc4c2CCC4)CCC3)c1` (single isomer, unassigned) [Example 161], the IC50 lay within 5000 to 30000 nM.
Under `Cc1cc(S(N)(=O)=NC(=O)Nc2c3c(cc4c2CCC4)CCC3)ccc1C(C)(C)O` (single isomer, unassigned) [Example 162] stands 200 to 1000 nM; under `Cc1cc(S(N)(=O)=NC(=O)Nc2c3c(cc4c2CCC4)CCC3)ccc1C(C)(C)O` (single isomer, unassigned) [Example 163], 5000 to 30000 nM.
Take `Cc1nc(C(C)(C)O)sc1S(N)(=O)=NC(=O)Nc1c2c(cc3c1CCC3)CCC2` (single isomer, unassigned) [Example 164]: the IC50 lay in the range of 8 to 40 nM.
For `Cc1nc(C(C)(C)O)sc1S(N)(=O)=NC(=O)Nc1c2c(cc3c1CCC3)CCC2` (single isomer, unassigned) [Example 165], the IC50 lay within 1000 to 5000 nM.
To `CC(C)(O)c1cc(F)cc(S(N)(=O)=NC(=O)Nc2c3c(c(F)c4c2CCC4)CCC3)c1` (single isomer, unassigned) [Example 170] belongs 1000 to 5000 nM; to `CC(C)(O)c1cc(F)cc(S(N)(=O)=NC(=O)Nc2c3c(c(F)c4c2CCC4)CCC3)c1` (single isomer, unassigned) [Example 171], 200 to 1000 nM; to `Cc1cc(S(N)(=O)=NC(=O)Nc2c(C(C)C)cc(OC(F)F)cc2C(C)C)sc1C(C)(C)O` (single isomer, unassigned) [Example 172], 200 to 1000 nM.
For the compound `Cc1cc(S(N)(=O)=NC(=O)Nc2c(C(C)C)cc(OC(F)F)cc2C(C)C)sc1C(C)(C)O` (single isomer, unassigned) [Example 173], the IC50 lay within 1000 to 5000 nM.
Consider `CC(C)(O)c1cc(S(N)(=O)=NC(=O)Nc2c3c(c(F)c4c2CCC4)CCC3)ccc1F` (single isomer, unassigned) [Example 174], for which the IC50 fell in the range of 200 to 1000 nM.
